From US20240158446A1, “CYCLIC COMPOUND HAVING SELECTIVE INHIBITORY ACTION ON KRAS OVER HRAS AND NRAS” (CHUGAI SEIYAKU KABUSHIKI KAISHA, priority 2021, published 2024)
pIC50, pKd: −log10 of the molar value.

Assays:
[1] = target: GDP-bound HRAS wild-type protein (Homo sapiens, UniProt P01112); test: Binding to HRAS by surface plasmon resonance (SPR), Single Cycle Kinetics; settings: SPR, GDP-bound HRAS wild-type protein vs GDP-bound KRAS wild-type protein
[2] = target: GDP-bound NRAS wild-type protein (Homo sapiens, UniProt P01111); test: Binding to NRAS by surface plasmon resonance (SPR), Single Cycle Kinetics; settings: SPR, GDP-bound NRAS wild-type protein vs GDP-bound KRAS wild-type protein
Sequence of GDP-bound NRAS wild-type protein (P01111 whole entry): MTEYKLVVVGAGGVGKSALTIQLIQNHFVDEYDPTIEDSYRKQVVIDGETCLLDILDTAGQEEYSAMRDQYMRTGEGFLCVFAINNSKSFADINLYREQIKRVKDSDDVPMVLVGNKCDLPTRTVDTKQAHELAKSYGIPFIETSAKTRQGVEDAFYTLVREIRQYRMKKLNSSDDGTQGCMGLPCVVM

[3] = tested on: human lung cancer strain NCI-H441;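 further: cell proliferation inhibition after four days measured by CellTiter-Glo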
[4] = target: GDP-bound KRAS wild-type protein (Homo sapiens, UniProt P01116); test: Binding to KRAS by surface plasmon resonance (SPR), Single Cycle Kinetics; settings: SPR, Single Cycle Kinetics, GDP-bound KRAS wild-type protein; read-out: KRAS KD
Sequence of GDP-bound KRAS wild-type protein (P01116 whole entry): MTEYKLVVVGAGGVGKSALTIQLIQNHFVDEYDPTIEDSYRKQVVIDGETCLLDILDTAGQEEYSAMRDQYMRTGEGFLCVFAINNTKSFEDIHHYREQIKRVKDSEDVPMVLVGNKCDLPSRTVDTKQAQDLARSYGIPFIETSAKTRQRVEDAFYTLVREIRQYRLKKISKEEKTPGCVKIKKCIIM

Sequence of GDP-bound HRAS wild-type protein (P01112 whole entry): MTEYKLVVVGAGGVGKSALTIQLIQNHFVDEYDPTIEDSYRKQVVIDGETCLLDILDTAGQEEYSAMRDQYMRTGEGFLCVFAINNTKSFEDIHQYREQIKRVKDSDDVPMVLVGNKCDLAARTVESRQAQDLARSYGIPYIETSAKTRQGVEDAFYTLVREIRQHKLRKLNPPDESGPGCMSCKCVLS

pIC50 [3] | pKd [4] | Structure (SMILES) | HRAS/KRAS (ratio of KD value for HRAS to KD value for KRAS) [1] | NRAS/KRAS (ratio of KD value for NRAS to KD value for KRAS) [2]
6.85 | 9.96 | CC[C@H](C)[C@@H]1NC(=O)[C@H](CC)N(C)C(=O)C[C@@H](C(=O)N(C)C)N(C)C(=O)[C@H](C2CCCC2)N(C)C(=O)C2(CCC2)NC(=O)[C@@H]2CSCCN2C(=O)[C@H](CCc2cc(F)c(C(F)(F)F)c(F)c2)NC(=O)CN(C)C(=O)[C@H](Cc2ccc(C(F)(F)F)cc2)N2CC/C=C\C[C@@H](C2=O)N(C)C(=O)CN(C)C1=O [PP1137, (2S,8S,15R,21S,24S,28S,31S,37S,39Z)-21-cyclopentyl-8-[2-[3,5-difluoro-4-(trifluoromethyl)phenyl]ethyl]-28-ethyl-N,N,4,20,23,27,33,36-octamethyl-31-[(1S)-1-methylpropyl]-3,6,9,16,19,22,26,29,32,35,43-undecaoxo-2-[[4-(trifluoromethyl)phenyl]methyl]spiro[13-thia-1,4,7,10,17,20,23,27,30,33,36-undecazatricyclo[35.5.1.0^10,1^5]tritetracont-39-ene-18,1′-cyclobutane]-24-carboxamide] | A (a compound having 10 or more and less than 20 is denoted as A) | AA (a compound having 20 or more is denoted as AA)
6.61 | 9.72 | CC[C@H](C)[C@@H]1NC(=O)[C@H](CC)N(C)C(=O)C[C@@H](C(=O)N(C)C)N(C)C(=O)[C@H](C2CCCC2)N(C)C(=O)C2(CCC2)NC(=O)[C@@H]2COCCN2C(=O)[C@H](CCc2cc(F)c(C(F)(F)F)c(F)c2)NC(=O)CN(C)C(=O)[C@H](Cc2ccc(C(F)(F)F)cc2)N2CC/C=C\C[C@@H](C2=O)N(C)C(=O)CN(C)C1=O [PP1138] | A (a compound having 10 or more and less than 20 is denoted as A) | A (a compound having 10 or more and less than 20 is denoted as A)
6.53 | 9.37 | CC[C@H](C)[C@@H]1NC(=O)[C@H](CC)N(C)C(=O)C[C@@H](C(=O)N(C)C)N(C)C(=O)[C@H](C2CCCC2)N(C)C(=O)C2(CCC2)NC(=O)[C@@H]2CCN2C(=O)[C@H](CCc2cc(F)c(C(F)(F)F)c(F)c2)NC(=O)CN(C)C(=O)[C@H](Cc2ccc(C(F)(F)F)cc2)N2CC/C=C\C[C@@H](C2=O)N(C)C(=O)CN(C)C1=O [PP1139] | A (a compound having 10 or more and less than 20 is denoted as A) | A (a compound having 10 or more and less than 20 is denoted as A)
5.75 | 9.82 | CC[C@H](C)[C@@H]1NC(=O)[C@H](CC)N(C)C(=O)C[C@@H](C(=O)N(C)C)N(C)C(=O)[C@H](C2CCCC2)N(C)C(=O)C2(CCC2)NC(=O)[C@H](C)NC(=O)[C@H](CCc2cc(F)c(C(F)(F)F)c(F)c2)NC(=O)CN(C)C(=O)[C@H](Cc2ccc(C(F)(F)F)cc2)N2CC/C=C\C[C@@H](C2=O)N(C)C(=O)CN(C)C1=O [PP1140, (2S,8S,11S,17S,20S,24S,27S,33S,35Z)-17-cyclopentyl-8-[2-[3,5-difluoro-4-(trifluoromethyl)phenyl]ethyl]-24-ethyl-N,N,4,11,16,19,23,29,32-nonamethyl-27-[(1S)-1-methylpropyl]-3,6,9,12,15,18,22,25,28,31,39-undecaoxo-2-[[4-(trifluoromethyl)phenyl]methyl]spiro[1,4,7,10,13,16,19,23,26,29,32-undecazabicyclo[31.5.1]nonatriacont-35-ene-14,1′-cyclobutane]-20-carboxamide] | A (a compound having 10 or more and less than 20 is denoted as A) | A (a compound having 10 or more and less than 20 is denoted as A)
6.37 | 9.49 | CCCN1CC(=O)NC2(CCC2)C(=O)N(C)[C@@H](C2CCCC2)C(=O)N(C)[C@H](C(=O)N(C)C)CC(=O)N(C)[C@@H](CC)C(=O)N[C@@H]([C@@H](C)CC)C(=O)N(C)CC(=O)N(C)[C@H]2C/C=C\CCN(C2=O)[C@@H](Cc2ccc(C(F)(F)F)cc2)C(=O)N(C)CC(=O)N[C@@H](CCc2cc(F)c(C(F)(F)F)c(F)c2)C1=O [PP1141] | A (a compound having 10 or more and less than 20 is denoted as A) | AA (a compound having 20 or more is denoted as AA)
6.49 | 9.19 | CCCCN1CC(=O)NC2(CCC2)C(=O)N(C)[C@@H](C2CCCC2)C(=O)N(C)[C@H](C(=O)N(C)C)CC(=O)N(C)[C@@H](CC)C(=O)N[C@@H]([C@@H](C)CC)C(=O)N(C)CC(=O)N(C)[C@H]2C/C=C\CCN(C2=O)[C@@H](Cc2ccc(C(F)(F)F)cc2)C(=O)N(C)CC(=O)N[C@@H](CCc2cc(F)c(C(F)(F)F)c(F)c2)C1=O [PP1142] | A (a compound having 10 or more and less than 20 is denoted as A) | A (a compound having 10 or more and less than 20 is denoted as A)
7.12 | 9.77 | CC[C@H](C)[C@@H]1NC(=O)[C@H](CC)N(C)C(=O)C[C@@H](C(=O)N(C)C)N(C)C(=O)[C@H](C2CCCC2)N(C)C(=O)C2(CCC2)NC(=O)CN(CC)C(=O)[C@H](CCc2cc(F)c(C(F)(F)F)c(F)c2)NC(=O)CN(C)C(=O)[C@H](Cc2ccc(C(F)(F)F)cc2)N2CC/C=C\C[C@@H](C2=O)N(C)C(=O)CN(C)C1=O [PP1143] | A (a compound having 10 or more and less than 20 is denoted as A) | A (a compound having 10 or more and less than 20 is denoted as A)
6.85 | 9.68 | CC[C@H](C)[C@@H]1NC(=O)[C@H](CC)N(C)C(=O)C[C@@H](C(=O)N(C)C)N(C)C(=O)[C@H](C2CCCC2)N(C)C(=O)C2(CCC2)NC(=O)[C@H](COC)N(C)C(=O)[C@H](CCc2cc(F)c(C(F)(F)F)c(F)c2)NC(=O)CN(C)C(=O)[C@H](Cc2ccc(C(F)(F)F)cc2)N2CC/C=C\C[C@@H](C2=O)N(C)C(=O)CN(C)C1=O [PP1145] | B (a compound having 3 or more and less than 10 is denoted as B) | A (a compound having 10 or more and less than 20 is denoted as A)
6.69 | 9.49 | CC[C@H](C)[C@@H]1NC(=O)[C@H](CC)N(C)C(=O)C[C@@H](C(=O)N(C)C)N(C)C(=O)[C@H](C2CCCC2)N(C)C(=O)C2(CCC2)NC(=O)[C@H](C)N(C)C(=O)[C@H](CCc2cc(F)c(C(F)(F)F)c(F)c2)NC(=O)CN(C)C(=O)[C@H](Cc2ccc(C(F)(F)F)cc2)N2CC/C=C\C[C@@H](C2=O)N(C)C(=O)CN(C)C1=O [PP1146] | B (a compound having 3 or more and less than 10 is denoted as B) | A (a compound having 10 or more and less than 20 is denoted as A)
6.45 | 8.92 | CC[C@H](C)[C@@H]1NC(=O)[C@H](CC)N(C)C(=O)C[C@@H](C(=O)N(C)C)N(C)C(=O)[C@H](C2CCCC2)N(C)C(=O)C2(CCC2)NC(=O)[C@H](COCCC(C)C)N(C)C(=O)[C@H](CCc2cc(F)c(C(F)(F)F)c(F)c2)NC(=O)CN(C)C(=O)[C@H](Cc2ccc(C(F)(F)F)cc2)N2CC/C=C\C[C@@H](C2=O)N(C)C(=O)CN(C)C1=O [PP1148] | A (a compound having 10 or more and less than 20 is denoted as A) | A (a compound having 10 or more and less than 20 is denoted as A)
6.76 | 9.37 | CC[C@H](C)[C@@H]1NC(=O)[C@H](CC)N(C)C(=O)C[C@@H](C(=O)N(C)C)N(C)C(=O)[C@H](C2CCCC2)N(C)C(=O)C2(CCC2)NC(=O)[C@H](CC2CCCCC2)N(C)C(=O)[C@H](CCc2cc(F)c(C(F)(F)F)c(F)c2)NC(=O)CN(C)C(=O)[C@H](Cc2ccc(C(F)(F)F)cc2)N2CC/C=C\C[C@@H](C2=O)N(C)C(=O)CN(C)C1=O [PP1149] | A (a compound having 10 or more and less than 20 is denoted as A) | A (a compound having 10 or more and less than 20 is denoted as A)
7.37 | 9.77 | CCCC[C@H]1C(=O)NC2(CCC2)C(=O)N(C)[C@@H](C2CCCC2)C(=O)N(C)[C@H](C(=O)N(C)C)CC(=O)N(C)[C@@H](CC)C(=O)N[C@@H]([C@@H](C)CC)C(=O)N(C)CC(=O)N(C)[C@H]2C/C=C\CCN(C2=O)[C@@H](Cc2ccc(C(F)(F)F)cc2)C(=O)N(C)CC(=O)N[C@@H](CCc2cc(F)c(C(F)(F)F)c(F)c2)C(=O)N1C [PP1150] | A (a compound having 10 or more and less than 20 is denoted as A) | AA (a compound having 20 or more is denoted as AA)
7.14 | 9.82 | CCO[C@@H]1C[C@H]2C(=O)NC3(CCC3)C(=O)N(C)[C@@H](C3CCCC3)C(=O)N(C)[C@H](C(=O)N(C)C)CC(=O)N(C)[C@@H](Cc3ccccc3C#N)C(=O)N[C@@H]([C@@H](C)CC)C(=O)N(C)CC(=O)N(C)[C@H]3CCCCCN(C3=O)[C@@H](Cc3ccc(F)cc3)C(=O)N(C)CC(=O)N[C@@H](CCc3cc(F)c(C(F)(F)F)c(F)c3)C(=O)N2C1 [PP1155] | B (a compound having 3 or more and less than 10 is denoted as B) | B (a compound having 3 or more and less than 10 is denoted as B)
